Measurements from publication PMC8767159, “Multiparameter Optimization of Trypanocidal Cruzain Inhibitors With In Vivo Activity and Favorable Pharmacokinetics” (Frontiers in Pharmacology, 2022).

Assays:
[1] = In vitro metabolic stability in mouse liver microsomes; type: in vitro ADME; conditions: for CLint (L/h/kg) Mouse: Table S5; for CLint_u (L/h/kg) Mouse: Table S5, CLint/fu
Method: (§1) Isolated mouse (BD Gentest, Bedford, MA) and human liver microsomes (XenoTech, Kansas City, KS) ([Plant, 2004]) were added at a final concentration of 0.25 mg/ml to a solution containing 40 mM dibasic potassium phosphate and 10 mM monobasic potassium phosphate. Stock solutions of compounds at 5 mM were prepared in 100% DMSO. A 50:50 quenching solution of acetonitrile (ACN) and methanol (MeOH) was prepared. An NADPH solution was prepared at 10 mM. The preparations containing the microsomes were added to each well of the incubation plate (450 µl), which was then heated to 37°C for 10 min. The compounds were added to the respective wells of the test plate (2 µl). Then, 300 µl of the microsome preparation was added to each well of the test plate. The test plate was heated under gentle rotation for 5 min at 37°C. Next, 90 µl of the mixture contained in the test plate was added to the incubation plate, making a final volume of 540 µl. Samples were collected at the following incubation times: 0, 5, 10, 15, 20, and 30 min. To the 0 min sample plate, quenching solution (180 µl), NADPH (6 µl), and the incubation plate mixture (54 µl) were added to each well. The sample plate was then sealed, homogenized, and stored at 4°C. Then, 54 µl of the NADPH solution was added to the incubation plate, which was homogenized. Before the collection of each sample at the established times, 45 µl of the quenching solution was added to each well of the corresponding sample plates. After reaching the incubation times, 60 µl of the mixture contained in the incubation plate was added to the corresponding sample plates. The sample plates were then sealed and stored at 4°C. After the collection of the last sample (30 min), all sample plates were centrifuged at 3,800 rpm for 30 min. The supernatant from each well was collected and transferred to clean plates for mass spectrometry. Five to 10 µl of each sample was injected into an AB Sciex Triple Quad 5500 LC-MS/MS instrument.
(§2) For the biotransformation experiments and analysis of metabolites in microsomes, an Ultra-High-Pressure Liquid Chromatography instrument (UHPLC, Thermo Accela, Waltham, MA) ([Spaggiari et al., 2014]) connected to an automatic sample injector and a 1250 series pump was used. The UHPLC system was connected to a Thermo Fisher (Waltham, MA) LTQ Orbitrap mass spectrometer. For all other analyses, an AB Sciex Triple Quad 5500 coupled to a UHPLC equipped with a UV 1290 diode detector (Agilent Technologies, Santa Clara, CA) and a CTC PAL self-collecting system (LEAP Technologies, Carrboro, NC) was used. Q1 MS positive ion mode (300–500 Da) was used to detect the ions of the parent compounds. The UV detector was operated in spectral mode (250–280 nm). A Hypersil Gold C18 (2.1 mm × 100 mm, 1.9 µm, Thermo Fisher) HPLC column was used. The mobile phases were solvent A (0.1% formic acid in water) and solvent B (0.1% formic acid in ACN). The flow was adjusted to 0.55 ml/min, and the injection volume was adjusted to […]. The gradient started with 1% solvent B for 0.4 min, reached 40% (solvent B) in 2.3 min and 95% (solvent B) in 0.67 min, was maintained for 0.5 min, and returned to the initial condition of 1%. This condition was maintained for 1 min before injection of the next sample. The peak area ratio (peak area of the test compounds/peak area of the control compounds) was converted to the percentage of remaining compound, with the 0 min time point ratio set to 100%. T½ and CLint were calculated from the percentage of remaining compound versus the incubation time. From the resulting function, the slope (k) was determined. The equations T1/2 (min) = ln(2)/k and CLint in vitro (μL/min/mg) = k*1000/0.25 were used to determine T½ and CLint.

[2] = In vitro metabolic stability in human liver microsomes; type: in vitro ADME; conditions: for CLint (L/h/kg) Human: Table S5; for CLint_u (L/h/kg) Human: Table S5, CLint/fu
Method: as §1, §2

[3] = Fraction unbound by equilibrium dialysis; type: in vitro ADME; conditions: Table S5; fraction unbound
Method: The fraction unbound (fu) ([Masimirembwa et al., 2003]) of the test compounds was determined after incubation with different media, namely, plasma, microsomes, and buffer with 10% FCS. Equilibrium dialysis was performed in a 96-well plate (HT-Dialysis, Gales Ferry, CT) in which each well was divided by a semipermeable membrane (12–14 kDa cutoff). The test compounds diluted in either plasma, microsome suspension, or buffer were added to one side of the membrane. Potassium phosphate buffer (50 mM, pH 7.4) was added to the other side of the membrane. A standard curve was used to calculate the compound concentration (fu) on each side of the membrane. Stock solutions of each compound were prepared in 100% DMSO to obtain a final concentration of 1 mM. The following compound concentrations were used: 1, 2, 20, 200, 2,000 and 5,000 nM. To 500 μl of medium, 0.5 μl of the compound stock solution was added, and this was applied to one side of the well. Each compound was evaluated in triplicate. Next, the plate was assembled, sealed, and incubated at 37°C under rotation (150 rpm) for 4 h. After the incubation period, the plates were subjected to LC-MS/MS.

[4] = Cytotoxicity MTS assay in HFF-1 fibroblasts; type: cell-based; conditions: human HFF-1 fibroblasts
Method: The synthesized compounds were evaluated for their cytotoxicity against HFF-1 cells using the MTS assay (Promega, Madison, WI) ([Barltrop et al., 1991]) as previously described ([Ferreira et al., 2019]). HFF-1 fibroblasts were plated at 2 × 10^3/well in 96-well culture plates in RPMI 1640 without phenol red enriched with 10% FCS and incubated overnight at 37°C and 5% CO2. Next, 7 concentrations (0.1–100 µM) of the compounds were added in 3-fold serial dilutions, each concentration in triplicate, and the plates were incubated for 72 h at 37°C and 5% CO2. Next, 20 µl of MTS was added to each well, and the plates were incubated for an additional 4 h at 37°C and 5% CO2. The absorbance was measured at 490 nm using a spectrophotometer, and the data were transferred to SigmaPlot 10.0 (Systat Software Inc., Erkrath, Germany) to determine the IC50 values. Doxorubicin (Sigma–Aldrich) was used as a positive control, and untreated wells (100% growth) were used as negative controls in all plates. All compounds were tested in two independent assays.

| Compound | CLint (L/h/kg) Mouse [1] | CLint_u (L/h/kg) Mouse [1] | CLint (L/h/kg) Human [2] | CLint_u (L/h/kg) Human [2] | fu [3] | IC50 at 72 h [4] |
| --- | --- | --- | --- | --- | --- | --- |
| O=C(COc1ccccc1I)NCCc1nc2ccccc2[nH]1 [Compound 41] | 683.00 L/h/kg | 1,082.41 L/h/kg | 39.40 L/h/kg | 62.44 L/h/kg | 0.63 |  |
| COc1cccc2c1C(=O)c1c(O)c3c(c(O)c1C2=O)C[C@@](O)(C(=O)CO)C[C@@H]3O[C@H]1C[C@H](N)[C@H](O)[C@H](C)O1 [Doxorubicin, reference compound] |  |  |  |  |  | 260 nM |
| O=C(COc1cccc2ccccc12)NCCc1nc2ccccc2[nH]1 [Compound 44] | 504.00 L/h/kg | 1,495.55 L/h/kg | 23.80 L/h/kg | 70.62 L/h/kg | 0.34 |  |
| O=C(COc1ccccc1F)NCCc1nc2ccccc2[nH]1 [Compound 39] | 125.00 L/h/kg | 132.56 L/h/kg | 7.03 L/h/kg | 7.45 L/h/kg | 0.94 |  |
| Nc1ccccc1OCC(=O)NCCc1nc2ccccc2[nH]1 [Compound 42] | 24.80 L/h/kg | 29.45 L/h/kg | 3.91 L/h/kg | 4.64 L/h/kg | 0.84 |  |
| O=C(COc1ccccc1Cl)NCCc1nc2ccccc2[nH]1 [Compound 40] |  | 419.09 L/h/kg | 19.50 L/h/kg | 22.70 L/h/kg | 0.86 |  |

More lines, main results first:

| CLint (L/h/kg) Mouse [1] | CLint_u (L/h/kg) Mouse [1] | CLint (L/h/kg) Human [2] | CLint_u (L/h/kg) Human [2] | fu [3] | Compound | IC50 at 72 h [4] |
| --- | --- | --- | --- | --- | --- | --- |
| 669.00 L/h/kg | 1,276.72 L/h/kg | 37.30 L/h/kg | 71.18 L/h/kg | 0.52 | O=Cc1c(OCC(=O)NCCc2nc3ccccc3[nH]2)ccc2ccccc12 [Compound 45] |  |
| 234.00 L/h/kg | 293.60 L/h/kg | 9.07 L/h/kg | 11.38 L/h/kg | 0.80 | O=C(CSc1ccccc1)NCCc1nc2ccccc2[nH]1 [Compound 48] |  |
| 433.00 L/h/kg | 453.17 L/h/kg | 61.50 L/h/kg | 64.36 L/h/kg | 0.96 | Cc1cc(C)c(C#N)c(SCC(=O)NCCc2nc3ccccc3[nH]2)n1 [Compound 59] |  |
| 306.00 L/h/kg | 325.19 L/h/kg | 9.38 L/h/kg | 9.97 L/h/kg | 0.94 | CC(=O)NCCc1nc2ccccc2n1CCOc1ccccc1Br [Compound 57] |  |
| 618.00 L/h/kg | 1,144.44 L/h/kg | 35.40 L/h/kg | 65.56 L/h/kg | 0.54 | O=C(COc1ccc2ccccc2c1)NCCc1nc2ccccc2o1 [Compound 51] |  |
| 355.00 L/h/kg |  | 157.00 L/h/kg | 3,634.26 L/h/kg | 0.04 | O=C(COc1ccc2ccccc2c1Br)NCCc1nc2ccccc2n1CCC(=O)c1cccs1 [Compound 61] |  |
| 86.20 L/h/kg | 86.20 L/h/kg | 3.28 L/h/kg | 3.28 L/h/kg | 1.00 | O=C(CCOc1ccccc1)NCCc1nc2ccccc2[nH]1 [Compound 49] |  |
| 536.00 L/h/kg | 641.15 L/h/kg | 14.20 L/h/kg | 16.99 L/h/kg | 0.84 | O=C(CCOc1ccccc1)NCCc1c[nH]c2ccccc12 [Compound 58] |  |
| 757.00 L/h/kg | 981.84 L/h/kg | 24.70 L/h/kg | 32.04 L/h/kg | 0.77 | O=C(COc1ccc2ccccc2c1CO)NCCc1nc2ccccc2[nH]1 [Compound 46] |  |
